The results in this text go back to ChEMBL document CHEMBL3045453, “Novel malyngamide structural analogs: synthesis and biological evaluation” (Med Chem Res, 2013).

Format in all cases: functional, cell-based
Assay [1] deals with HOP-62. As to the kind of experiment: Cytotoxicity against Homo sapiens (human) HOP62 cells assessed as growth inhibition after 48 hr by trypan blue exclusion assay. As to conditions: HOP-62, 48 h.
The test system of assay [2] is HeLa. As to the kind of experiment: Cytotoxicity against Homo sapiens (human) HeLa cells assessed as growth inhibition after 48 hr by trypan blue exclusion assay.
The test system of assay [3] is SF-295. As to the kind of experiment: Cytotoxicity against Homo sapiens (human) SF295 cells assessed as growth inhibition after 48 hr by trypan blue exclusion assay. As to conditions: SF-295, 48 h.
The test system of assay [4] is SK-N-SH. As to the kind of experiment: Cytotoxicity against Homo sapiens (human) SK-N-SH cells assessed as growth inhibition after 48 hr by trypan blue exclusion assay.
In assay [5] the test system is SW-620. As to the kind of experiment: Cytotoxicity against Homo sapiens (human) SW620 cells assessed as growth inhibition after 48 hr by trypan blue exclusion assay. The conditions noted are these: SW-620, 48 h.
Assay [6] relates to PC-3. As to the kind of experiment: Cytotoxicity against Homo sapiens (human) PC3 cells assessed as growth inhibition after 48 hr by trypan blue exclusion assay. The conditions noted are these: PC-3, 48 h.
For assay [7], the system named is IMR-32. As to the kind of experiment: Cytotoxicity against Homo sapiens (human) IMR32 cells assessed as growth inhibition after 48 hr by trypan blue exclusion assay. As to conditions: IMR-32, 48 h.
The nature of assay [8]: Cytotoxicity against Homo sapiens (human) 502713 cells assessed as growth inhibition after 48 hr by trypan blue exclusion assay. The conditions noted are these: Homo sapiens, 502713, 48 h.

As usually defined, the IC50 is the concentration that gives 50% inhibition. Turning to `CCCCCCC[C@H](O)C/C=C/CCC(=O)NCCc1ccccc1`, the IC50 in assay [1] was more than 100 µM; in assay [2] it was more than 100 µM; in assay [3], more than 100 µM; in assay [4] it was 164 µM; in assay [5], more than 100 µM; in assay [6] it was more than 100 µM. The IC50 in assay [7] and in assay [8] was more than 100 µM each time.
Regarding `CCCCCCC[C@H](O)C/C=C/CCC(=O)N1CCCC1`, the concentration for half-maximal inhibition (IC50) in assay [1] was more than 100 µM; in assay [2], more than 100 µM; in assay [3], more than 100 µM; in assay [4], 120 µM; in assay [5], more than 100 µM; in assay [6] it was more than 100 µM. In addition, the 50% inhibitory concentration (IC50) in assay [7] and in assay [8] was more than 100 µM in each case.
In the case of `CCCCCCC[C@H](O)C/C=C/CCC(=O)N1CCCCC1`, the IC50 is more than 100 µM in assay [1]; more than 100 µM in assay [2]; more than 100 µM in assay [3]; 100 µM in assay [4]; more than 100 µM in assay [5]; more than 100 µM in assay [6]. In addition, the IC50 in assay [7] and in assay [8] was more than 100 µM throughout.
As to `CCCCCCC[C@H](O)C/C=C/CCC(=O)NCC(C)C`, the IC50 in assay [1], in assay [2], in assay [3], in assay [4], in assay [5] and in assay [6] was more than 100 µM throughout. Also, the IC50 in assay [7] and in assay [8] was more than 100 µM in each case.
Take `CCCCCCC[C@H](C/C=C/CCC(=O)N1CCCC1)OC`: the IC50 in assay [1], in assay [2], in assay [3], in assay [4], in assay [5] and in assay [6] was more than 100 µM each time. The IC50 in assay [7] and in assay [8] was more than 100 µM each time.
Consider `CCCCCCC[C@H](C/C=C/CCC(=O)N1CCCCC1)OC`, for which the IC50 was more than 100 µM in assay [1]; more than 100 µM in assay [2]; more than 100 µM in assay [3]; 118 µM in assay [4]; more than 100 µM in assay [5]; more than 100 µM in assay [6]. The IC50 in assay [7] and in assay [8] was more than 100 µM each time.
Turning to `CCCCCCC[C@H](C/C=C/CCC(=O)NCC(C)C)OC`, the IC50 in assay [1], in assay [2], in assay [3], in assay [4], in assay [5] and in assay [6] was more than 100 µM in each case. For the same molecule, the IC50 in assay [7] and in assay [8] was more than 100 µM throughout.
On to `CCCCCCC[C@@H](C/C=C/CCC(=O)Nc1ccc(Br)cc1)OC`, for which the IC50 in assay [1] was 174 µM; in assay [2], more than 100 µM; in assay [3] it was more than 100 µM; in assay [4], 65.7 µM; in assay [5], more than 100 µM; in assay [6] it was more than 100 µM. Moreover, the IC50 in assay [7] and in assay [8] was more than 100 µM throughout.
On to `CCCCCCC[C@@H](C/C=C/CCC(=O)NCc1ccc(C(F)(F)F)cc1)OC`, for which the IC50 is more than 100 µM in assay [1]; more than 100 µM in assay [2]; more than 100 µM in assay [3]; 62.9 µM in assay [4]; more than 100 µM in assay [5]; more than 100 µM in assay [6]. Further, the IC50 in assay [7] is more than 100 µM; in assay [8] it was 29.8 µM.
`CCCCCCC[C@@H](C/C=C/CCC(=O)Nc1c(OC)cc(Cl)cc1OC)OC`: the IC50 in assay [1], in assay [2], in assay [3], in assay [4], in assay [5] and in assay [6] was more than 100 µM in each case. Moreover, the values for the concentration for half-maximal inhibition (IC50) in assay [7] and in assay [8] were more than 100 µM and 64.1 µM, respectively.
As to `CCCCCCC[C@@H](C/C=C/CCC(=O)NCc1ccc(OC)cc1)OC`, the IC50 in assay [1], in assay [2], in assay [3], in assay [4], in assay [5] and in assay [6] was more than 100 µM in each case. Further, the half-inhibitory concentration (IC50) in assay [7] and in assay [8] was more than 100 µM in each case.
Regarding `CCCCCCC[C@@H](C/C=C/CCC(=O)Nc1ccc(Cl)cc1)OC`, the IC50 in assay [1] is more than 100 µM; in assay [2], more than 100 µM; in assay [3], more than 100 µM; in assay [4] it was 72.9 µM; in assay [5], more than 100 µM; in assay [6] it was more than 100 µM. In addition, the IC50 in assay [7] and in assay [8] was more than 100 µM in each case.
Regarding `CCCCCCC[C@@H](C/C=C/CCC(=O)NCc1ccc(F)cc1)OC`, the IC50 in assay [1], in assay [2], in assay [3], in assay [4], in assay [5] and in assay [6] was more than 100 µM in each case. The IC50 in assay [7] and in assay [8] was more than 100 µM throughout.
Consider `CCCCCCC[C@@H](C/C=C/CCC(=O)NCc1ccccc1)OC`, for which the IC50 in assay [1], in assay [2], in assay [3], in assay [4], in assay [5] and in assay [6] was more than 100 µM each time. Further, the IC50 in assay [7] and in assay [8] was more than 100 µM in each case.
For the molecule `CCCCCCC[C@@H](C/C=C/CCC(=O)N1CCCC1)OC`, the concentration for half-maximal inhibition (IC50) in assay [1], in assay [2], in assay [3], in assay [4], in assay [5] and in assay [6] was more than 100 µM in each case. For the same molecule, the IC50 in assay [7] and in assay [8] was more than 100 µM each time.
Take `CCCCCCC[C@@H](C/C=C/CCC(=O)N1CCCCC1)OC`: the IC50 in assay [1], in assay [2], in assay [3], in assay [4], in assay [5] and in assay [6] was more than 100 µM each time. Moreover, the concentration for half-maximal inhibition (IC50) in assay [7] and in assay [8] was more than 100 µM in each case.
Consider `CCCCCCC[C@@H](C/C=C/CCC(=O)NCC(C)C)OC`, for which the IC50 in assay [1], in assay [2], in assay [3], in assay [4], in assay [5] and in assay [6] was more than 100 µM throughout. Moreover, the IC50 in assay [7] and in assay [8] was more than 100 µM throughout.
For the molecule `CCCCCCC[C@@H](C/C=C/CCC(=O)NCCc1ccccc1)OC` [HERMITAMIDE A], the half-maximal inhibitory concentration (IC50) in assay [1], in assay [2], in assay [3], in assay [4], in assay [5] and in assay [6] was more than 100 µM throughout. The IC50 in assay [7] and in assay [8] was more than 100 µM each time.
Consider `CCCCCCC[C@H](C/C=C/CCC(=O)NCCc1ccccc1)OC` [PHENETHYL(7R,4E)-METHOXYTETRADECENAMIDE], for which the IC50 in assay [1] is more than 100 µM; in assay [2], more than 100 µM; in assay [3], more than 100 µM; in assay [4], 95.8 µM; in assay [5], more than 100 µM; in assay [6], more than 100 µM. The IC50 in assay [7] and in assay [8] was more than 100 µM in each case.
